Data from article PMC4718910 (SpringerPlus, 2016).
Where two headings read alike, the source gives them in different places.

What was measured:
[1] = test system: ER/PgR-positive HER2-negative MBC; design: method as in Bachelot et al. [2012]; conditions: aromatase inhibitor-resistant, N 111; ref Bachelot et al. [2012]; cited from earlier work
ER/PgR/HER2-positive MBC = test system: ER/PgR/HER2-positive MBC; design: method as in Kaufman et al. [2009]; conditions: N 207, ref Kaufman et al. [2009]; cited from earlier work
ErbB4 = conditions: read-out: half maximal inhibitory concentration, ErbB4; ref Li et al. [2008]; cited from earlier work
[2] = Letrozole plasma pharmacokinetics (HPLC-MS/MS); type: in vivo, human
Protocol: For quantification of drug plasma concentrations, 5 mL of venous blood was collected. […] Letrozole plasma concentrations were determined by a validated HPLC–MS/MS assay at Nuvisan Pharma Services GmbH & Co. KG, Neu-Ulm, Germany.

[3] = Afatinib plasma pharmacokinetics (HPLC-MS/MS); type: in vivo, human; conditions: for AUC / Tmax: human, plasma, po; for AUC: read-out: AUCtau,ss, geometric mean; for Tmax: read-out: tmax,ss, median
ErbB3 = test system: ErbB3; design: method as in Li et al. [2008]; conditions: ref Li et al. [2008]; cited from earlier work
HER2 = conditions: read-out: half maximal inhibitory concentration, HER2; ref Li et al. [2008]; cited from earlier work
[4] = test system: HER2-positive metastatic breast cancer (MBC); design: method as in Lin et al. [2012]; conditions: afatinib monotherapy 50 mg/day, heavily pre-treated HER2-positive MBC after trastuzumab; ref Lin et al. [2012]; cited from earlier work
ER/PgR-positive MBC = test system: ER/PgR-positive MBC; design: method as in Huober et al. [2012]; conditions: ref Huober et al. [2012], cited from earlier work
[5] = Afatinib 30 mg multiple oral administrations with letrozole 2.5 mg, N 5
[6] = Afatinib 40 mg multiple oral administrations with letrozole 2.5 mg, N 4
[7] = ER/PgR-positive HER2-negative MBC, N 35

SMILES: CC/C(=C(\c1ccccc1)c1ccc(OCCN(C)C)cc1)c1ccccc1 [Tamoxifen]
- Clinical benefit rate [1]: Clinical benefit rate = 42%

SMILES: CC(C)(C#N)c1cc(Cn2cncn2)cc(C(C)(C)C#N)c1 [Anastrozole]
- Median PFS (independent assessment) (ER/PgR/HER2-positive MBC): 2.4 (independent assessment) months

SMILES: CN(C)C/C=C/C(=O)Nc1cc2c(Nc3ccc(F)c(Cl)c3)ncnc2cc1O[C@H]1CCOC1 [Afatinib]
- effect of afatinib on letrozole exposure ([2]; letrozole trough and 2-h post-dose plasma concentrations, screening period vs afatinib treatment period): no effect
- Cpre,ss, 57, geometric mean ([3]; Afatinib 30 mg with letrozole 2.5 mg, pre-dose day 1 of cycle 3, N 8): 15.8 ng/mL
- Cpre,ss, 85, geometric mean ([3]; Afatinib 30 mg with letrozole 2.5 mg, pre-dose day 1 of cycle 4, N 5): 17.3 ng/mL
- Cpre,ss, 57, geometric mean ([3]; Afatinib 40 mg with letrozole 2.5 mg, pre-dose day 1 of cycle 3, N 5): 21.4 ng/mL
- Cpre,ss, 85, geometric mean ([3]; Afatinib 40 mg with letrozole 2.5 mg, pre-dose day 1 of cycle 4, N 4): 16.9 ng/mL
- AUC [3, 5]: 0.579 µg·h/mL
- Tmax [3, 5]: 4 h
- AUC [3, 6]: 0.66 µg·h/mL
- Tmax [3, 6]: 2 h
- ErbB3 transphosphorylation (ErbB3): inhibits ErbB3 transphosphorylation
- IC50 (HER2): 14 nM
- Median PFS [4]: 15 weeks
- overall survival (OS) [4]: 61 weeks

SMILES: N#Cc1ccc(C(c2ccc(C#N)cc2)n2cncn2)cc1 [Letrozole]
- AUC ([2]; human, plasma, oral, 2.5 mg, read-out: geometric mean AUCtau,ss): 2.42 µg·h/mL
- Cmax ([2]; human, plasma, oral, 2.5 mg, read-out: geometric mean Cmax,ss): 0.135 µg/mL
- Grade ≥3 bone pain (ER/PgR-positive MBC; [7]): Bone pain 6%
- Median PFS (ER/PgR-positive MBC; [7]): 15.2 months
- Median PFS (ER/PgR-positive MBC; ER/PgR/HER2-positive MBC, first-line): 3.3 months
- Grade ≥3 bone pain (ER/PgR-positive MBC; ER/PgR/HER2-positive MBC): 7%
- Grade ≥3 dyspnea (ER/PgR-positive MBC; ER/PgR/HER2-positive MBC): 7%
